{
  "source": "patent US20240374581A1",
  "about": "“SALT TYPES OF TRICYCLIC TETRAHYDRO ISOQUINOLINE DERIVATIVE” (JIANGSU HENGRUI PHARMACEUTICALS CO., LTD., priority 2021, published 2024)",
  "key": {"MCF-7 cells": {"system": "MCF-7 cells", "experiment": "Inhibition of proliferation of MCF-7 cells (ATP method)", "format": "cell-based", "conditions": "Homo sapiens, MCF7; 72 h, Cell Titer-Glo; read-out: IC50, inhibitory effect on proliferation of MCF-7 cells", "procedure": "This experiment was intended to test the inhibitory effect of the compound disclosed herein on the proliferation of MCF-7 cells by using the ATP method, and to evaluate the in vitro activity of the compound according to the IC50 value.\nMCF-7 cells (TCHu74, National Collection of Authenticated Cell Cultures) were seeded into a 96-well plate with an MEM (hyclone, SH30024.01B) medium containing 10% FBS (Gibco, 10099-141), 1% sodium pyruvate (sigma, S8636) and 1% non-essential amino acid (sigma, M7145) at a density of 4,000 cells/well and cultured at 37° C. with 5% CO2. 20 mM stock solution of the compound was prepared, serially diluted with 100% DMSO to a final concentration of 1000×, and then diluted 20-fold with a medium containing 2% FBS. After the cells were cultured for 24 h, the medium was removed. 90 μL of the medium containing 2% FBS and 10 μL of a drug were added to each well, and 10 μL of DMSO was added to the control group. The mixtures were well mixed by gentle shaking. The blank group contained only 100 μL of the medium containing 2% FBS. The cells were cultured in an incubator at 37° C. with 5% CO2 for 72 h, and then 50 μL of mixed Cell Titer-Glo (Promega, G7571) was added to each well. The mixtures were well mixed by shaking and let stand at room temperature for 10 min, and the chemiluminescence signal value was determined. […]"}, "CYP3A4 [1]": {"target": "T1, CYP3A4 (Homo sapiens (Human), UniProt P08684)", "T1 sequence (P08684 whole entry)": "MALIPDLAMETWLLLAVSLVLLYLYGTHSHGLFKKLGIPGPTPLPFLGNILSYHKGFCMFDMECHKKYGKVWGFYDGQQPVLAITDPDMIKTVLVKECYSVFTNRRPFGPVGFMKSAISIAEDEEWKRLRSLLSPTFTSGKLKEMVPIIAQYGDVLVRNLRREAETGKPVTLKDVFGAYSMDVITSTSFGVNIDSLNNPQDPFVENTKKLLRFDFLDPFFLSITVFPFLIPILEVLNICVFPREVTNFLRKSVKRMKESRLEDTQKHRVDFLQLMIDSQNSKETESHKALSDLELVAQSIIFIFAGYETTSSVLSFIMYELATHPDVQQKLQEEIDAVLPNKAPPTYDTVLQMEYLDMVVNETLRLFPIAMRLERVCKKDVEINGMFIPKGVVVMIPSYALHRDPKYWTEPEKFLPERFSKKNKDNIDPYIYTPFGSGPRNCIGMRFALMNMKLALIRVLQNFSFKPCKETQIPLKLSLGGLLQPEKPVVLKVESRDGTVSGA", "experiment": "Inhibition of site of metabolism of testosterone in human liver microsome CYP3A4", "format": "in vitro ADME", "conditions": "30 min", "procedure": "(§1) • 1. Phosphate buffer (20×PBS, purchased from Sangon); • 2. NADPH (ACROS, A2646-71-1); • 3. Human liver microsome (Corning Gentest, Cat No. 452161, Lot No. 905002, Donor36); • 4. ABI QTrap 4000 LC-MS System (AB Sciex); • 5. ZORBAX Extend-C18, 3×50 mm, 3.5 m (Agilent, USA); • 6. CYP probe substrate (testosterone, Vocko, CAS No. [58-22-0]/75 μM) and positive control inhibitor (ketoconazole, SIGMA, Cat No. K1003-100MG).\nA 100 mM PBS buffer was prepared. A 0.25 mg/mL microsome solution, a 7.5 mM MgCl2 and a 5 mM NADPH solution were prepared using the buffer. A30 mM stock solution was diluted with DMSO to obtain 30 mM, 10 mM, 3 mM, 1 mM, 0.3 mM, 0.03 mM, 0.003 mM and 0 mM serial solutions I, which were further diluted 200-fold with phosphate buffer (PBS) to obtain serial test solutions II (150, 50, 15, 5, 1.5, 0.15, 0.015 and 0 μM). A testosterone working solution was diluted with PBS to 375 μM. 40 μL of a 0.25 mg/mL microsome solution prepared in 7.5 mM MgCl2 and 20 μL of each of the 375 μM testosterone working solution and the compound working solutions (150, 50, 15, 5, 1.5, 0.15, 0.015 and 0 μM) were measured out and well mixed. […]\nThe IC50 value of the drug for the site of metabolism of testosterone in CYP3A4 was calculated by Graphpad Prism and is shown in Table 6."}, "CYP3A4 [2]": {"target": "T1, CYP3A4", "experiment": "Time-dependent inhibition of site of metabolism of testosterone in human liver microsome CYP3A4", "format": "in vitro ADME", "conditions": "for IC50: testosterone site", "procedure": "as §1, with “(verapamil, Adamas Reagent Co., Ltd,” for “(ketoconazole, SIGMA,”, “25904A).” for “K1003-100MG).”\nA 100 mM PBS buffer was prepared. A 0.25 mg/mL microsome solution, a 7.5 mM MgCl2 and a 5 mM NADPH solution were prepared using the buffer. A 30 mM stock solution was diluted with DMSO to obtain 30 mM, 10 mM, 3 mM, 1 mM, 0.3 mM, 0.1 mM, 0.03 mM and 0 mM serial solutions I, which were further diluted 200-fold with phosphate buffer (PBS) to obtain serial test solutions II (150, 50, 15, 5, 1.5, 0.5, 0.15 and 0 μM). A midazolam working solution was diluted with PBS to 15 μM.\nThe serial test solutions prepared above were well mixed by shaking and aliquoted in 20 μL portions into corresponding reaction plates (+NADPH, TO and -NADPH groups were set). Three parallel tests were set. 40 μL of the liver microsome working solution was added to each 96-well plate. 20 μL of a corresponding substrate solution was added to the TO plate. 20 μL of NADPH was added to the TO plate and +NADPH group. A timer was started, and the plates were incubated in a water bath at 37° C. After 30 min of incubation, the TO plate was taken out, and the reaction was terminated with 250 μL of an internal standard-containing ACN solution. The +NADPH group was supplemented with 20 μL of the corresponding substrate solution, and the −NADPH group was supplemented with 20 μL of the corresponding substrate solution and 20 μL of NADPH. A timer was started, and the plates were incubated in a water bath at 37° C. After 30 min of incubation, the plates were taken out, and the reactions were terminated with 250 μL of an internal standard-containing ACN solution. […]\nThe IC50 value of the drug for the site of metabolism of testosterone in CYP3A4 was calculated by Graphpad Prism and is shown in Table 8."}},
  "data": [
    {"molecule": "[2H]C1([2H])Oc2cc3c(cc2O1)[C@@H](c1ccc(NC2CN(CCCF)C2)cn1)N(CC(F)(F)CO)[C@H](C)C3", "note": "[Compound 1, 2,2-Difluoro-3-((5S,7R)-5-(5-((1-(3-fluoropropyl)azetidin-3-yl)amino)pyridin-2-yl)-7-methyl-7,8-dihydro-[1,3]dioxolo[4,5-g]isoquinolin-6(5H)-yl-2,2-d2)propan-1-ol]", "values": [
      {"measurement": "IC50", "setting": "MCF-7 cells", "result": 0.00029, "unit": "µM"},
      {"measurement": "IC50", "setting": "CYP3A4 [1]", "result": "> 30", "unit": "µM"},
      {"measurement": "IC50 Shift", "setting": "CYP3A4 [2]; microsomes", "result": "No TDI"},
      {"measurement": "IC50", "setting": "CYP3A4 [2]; pre-incubation with NADPH 30 min", "result": "> 30", "unit": "µM"},
      {"measurement": "IC50", "setting": "CYP3A4 [2]; pre-incubation without NADPH", "result": "> 30", "unit": "µM"}
    ]}
  ]
}
